# Assays:
# PSMA+ PC3 PIP cells = experiment: Clonogenic survival assay; assay type: cell-based, human; details: 48 h treatment at 37 °C
# Protocol: Cells (200–1000) were seeded in 60 mm culture dishes. Each radioligand (^177Lu-L1, ^177Lu-Alb-L2, ^177Lu-Alb-L5) was diluted in a prewarmed medium at different concentrations (0, 0.37, 1.85, 3.7, 18.5, 37, 185, and 370 kBq/mL) and incubated with the cells for 48 h, as we previously reported. The radiolabeled compound was replaced with fresh medium, and cells were incubated for 2 weeks or until colonies had at least 50 cells. The colonies were stained with crystal violet and counted, and the surviving fraction was normalized to the control plating efficiency, as previously described.
# patients = system: patients; set-up: method as in PMID 32949253; details: than 177Lu-EB-PSMA-617 and 177Lu-PSMA-ALB-56; clinical studies; cited from earlier work
# [1] = system: patients with metastatic castration-resistant prostate cancer; set-up: method as in PMID 34161051, PMID 34385339; details: treatment group of randomized patients; cited from earlier work
SMILES,Activity to reduce cell survival to 37% (A0) (PSMA+ PC3 PIP cells) [kBq/mL],Concentration of radioactivity for complete cell killing (PSMA+ PC3 PIP cells) [kBq/mL],"Kidney-absorbed dose, fold lower (patients)",Median overall survival [1] [months]
"O=C(O)CCC(NC(=O)NC(CCCCN(Cc1ccc(Br)cc1)C(=O)CCCCNC(=O)CN1CCN(CC(=O)O)CCN(CC(=O)O)CCN(CC(=O)O)CC1)C(=O)O)C(=O)O (stereo not shown) [177Lu-L1, metal not drawn]",18.5,370,–,–
O=C([O-])CN1CCN(CC(=O)[O-])CCN(CC(=O)NCC2CCC(C(=O)N[C@@H](Cc3ccc4ccccc4c3)C(=O)NCCCC[C@H](NC(=O)N[C@@H](CCC(=O)O)C(=O)O)C(=O)O)CC2)CCN(CC(=O)[O-])CC1.[177Lu+3] (stereo partly shown) [177Lu-PSMA-617],–,–,~ 4 fold,15.3

# From PMC10459686, “Preclinical Evaluation of a New Series of Albumin-Binding ^177Lu-Labeled PSMA-Based Low-Molecular-Weight Radiotherapeutics” (Molecules, 2023)
